Experimental data from patent US6228602A, “Competitive apo-peroxidase assay” (Bayer Corporation, priority 1999, dated 2001).

Assays:
Apoglucose oxidase = details: apoglucose oxidase and FAD; U.S. Pat. No. 4,493,890; read-out: binding constant; cited from earlier work
apo-Hb = target: T1, apo-Hb (Homo sapiens, UniProt P68871+P69905); test: Metal porphyrin study: reactivation of apo-hemoglobin (Example IV); format: biochemical; details: 12 μM apo-Hb, 12 μM metal porphyrin, HEMASTIX no lepidine/pH 7.5
T1 construct: made in house
T1 sequence (P69905 2-142 limits assumed): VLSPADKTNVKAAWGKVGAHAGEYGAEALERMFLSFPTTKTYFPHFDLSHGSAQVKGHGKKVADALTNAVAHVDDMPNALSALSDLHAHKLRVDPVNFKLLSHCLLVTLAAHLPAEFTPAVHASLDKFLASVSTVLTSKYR
T1 sequence (P68871 2-147 limits assumed): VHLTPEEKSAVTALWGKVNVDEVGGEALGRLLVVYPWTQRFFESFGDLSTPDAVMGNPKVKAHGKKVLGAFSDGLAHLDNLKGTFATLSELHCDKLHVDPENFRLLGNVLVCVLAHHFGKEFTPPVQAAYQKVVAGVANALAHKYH
Experimental: (§1) In this example, other metal porphyrins were tested for their ability to reactivate different types of apo-peroxidases. Metals such as Fe, Cu, Mg, Zn, Ni, Mn, Co and Pd were complexed to hematin and added to the peroxidase detecting agent. Metals such as Mn, Fe, Cu and Co and porphyrins other than hematin, i.e. deuteroporphyrin and coproporphyrin were also shown to provide the desired response.
A 0.7% solution of hemoglobin was lowered to pH 1.5 and the resulting solution was ultrafiltered through a 10 KDa cutoff membrane followed by several changes of water. Filtered material was reconstituted into water. The apo-hemoglobin passed […]. […] It produced a HEMASTIX® result of +++++ indicating a high concentration of hemoglobin.

[1] = Metal porphyrin study: metal porphyrin in water without apo-enzyme (Example IV); format: biochemical; details: 12 μM metal porphyrin, HEMASTIX no lepidine/pH 7.5
Experimental: as §1

apo-POD [2] = target: T2, apo-POD (Armoracia rusticana, UniProt P00433); test: Interference study with peroxidase detecting dry reagent (Example III); format: biochemical, horse radish
T2 construct: purchased Sigma Chemical Company, St. Louis, Mo
T2 sequence (P00433 31-353): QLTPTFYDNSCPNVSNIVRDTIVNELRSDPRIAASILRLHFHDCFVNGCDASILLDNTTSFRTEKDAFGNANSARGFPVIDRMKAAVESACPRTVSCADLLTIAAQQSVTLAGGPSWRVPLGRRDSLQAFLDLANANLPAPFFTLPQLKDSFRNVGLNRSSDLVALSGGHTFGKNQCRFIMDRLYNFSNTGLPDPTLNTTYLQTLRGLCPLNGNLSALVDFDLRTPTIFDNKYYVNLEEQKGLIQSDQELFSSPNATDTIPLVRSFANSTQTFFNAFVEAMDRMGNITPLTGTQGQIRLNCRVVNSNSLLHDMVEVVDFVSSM
Experimental: In this example, a peroxidase detecting dry reagent with resistance to 0.81 mg/dL hemoglobin (or myoglobin) and 25 mg/dL ascorbate and sufficient sensitivity to detect apo-peroxidase reactivation was used. […]
The reagent was tested by dipping it into solutions containing the interfering substance with and without Fe hematin. […]

apo-POD [3] = target: T2, apo-POD; test: Metal porphyrin study: reactivation of apo-peroxidase (Example IV); format: biochemical, horse radish; details: 12 μM apo-POD, 12 μM metal porphyrin, HEMASTIX no lepidine/pH 7.5
Experimental: as §1

SMILES	Kd (Apoglucose oxidase) [nM]	% R @ 90 second read time on CLINITEK-200+, mean (apo-Hb) [% R]	% R @ 90 second read time on CLINITEK-200+, mean [1] [% R]	% R response, mean (apo-POD [2]; +3.6 μM Fe Hematin, HEMASTIX (lepidine/pH 6.3), Water) [%]	% R response, mean (apo-POD [2]; +3.6 μM Fe Hematin, HEMASTIX (no lepidine/pH 7.5), Water) [%]	% R response, mean (apo-POD [2]; +12 μM Fe Hematin/12 μM apo-POD, HEMASTIX (lepidine/pH 6.3), Water) [%]	% R response, mean (apo-POD [2]; +12 μM Fe Hematin/12 μM apo-POD, HEMASTIX (no lepidine/pH 7.5), 25 mg/dL Ascorbic) [%]	% R response, mean (apo-POD [2]; +12 μM Fe Hematin/12 μM apo-POD, HEMASTIX (no lepidine/pH 7.5), Water) [%]	% R response, mean (apo-POD [2]; +12 μM Fe Hematin, HEMASTIX (lepidine/pH 6.3), 25 mg/dL Ascorbic) [%]	% R response, mean (apo-POD [2]; +12 μM Fe Hematin, HEMASTIX (lepidine/pH 6.3), Water) [%]	% R response, mean (apo-POD [2]; +12 μM Fe Hematin, HEMASTIX (no lepidine/pH 7.5), 25 mg/dL Ascorbic) [%]	% R response, mean (apo-POD [2]; +12 μM Fe Hematin, HEMASTIX (no lepidine/pH 7.5), Water) [%]	% R response, mean (apo-POD [2]; +36 μM Fe Hematin, HEMASTIX (lepidine/pH 6.3), Water) [%]	% R @ 90 second read time on CLINITEK-200+, mean (apo-POD [3]) [% R]
Cc1cc2nc3c(=O)[nH]c(=O)nc-3n(C[C@H](O)[C@H](O)[C@H](O)COP(=O)(O)OP(=O)(O)OC[C@H]3O[C@@H](n4cnc5c(N)ncnc54)[C@H](O)[C@@H]3O)c2cc1C [FAD, flavin adenine dinucleotide]	~0.1													
C=CC1=C(C)c2cc3[n-]c(cc4[n-]c(cc5nc(cc1n2)C(C)=C5C=C)c(C)c4CCC(=O)O)c(CCC(=O)O)c3C.O.[Fe+2] [Fe Hematin]		45.3	71.5	8.8	79.2	4.1	55.3	54.0	5.3	6.4	73.2	72.4	3.1	50.9
